# Entries after “also recorded” stand apart in the source; their conditions may differ. Where two headings read alike, the source gives them in different places.
# How the values were obtained:
# MRSA 70 = assay: MIC, agar plate dilution method; type: cell-based, methicillin-resistant Staphylococcus aureus; details: Staphylococcus aureus
# Method: (§1) Assay of minimum inhibitory concentration (MIC) was performed according to the agar plate dilution method (Method of Japan Society of Chemotherapy, CHEMOTHERAPY 29, 76-79, 1981).
# (§2) Test organisms used were 27 types of microorganisms including clinical isolates of methicillin-resistant Staphylococcus aureus. Each test organism was cultured in Mueller-Hinton broth (2.1% w/v) (DIFCO) at 37° C. for 20 hours, and the cultured cells were suspended to about 10^6 cell counts/ml in the same medium, then was used as the microbial suspension for inoculation. The prepared microbial suspension was smeared by using the microplanter on MHA medium (Mueller-Hinton broth 2.1% (w/v) and agar 1.5%) containing K04-0144A substance, K04-0144B substance or K04-0144C substance, each of which was subjected to two-fold stepwise dilution from 128 μg/ml. After culturing at 37° C. for 20 hours, MIC was determined by macroscopically confirming the growth of microorganisms. Vancomycin, arbekacin and linezolid were used as a comparative control.
# MRSA 92-1191 = assay: MIC, agar plate dilution method; type: cell-based, methicillin-resistant Staphylococcus aureus; details: Staphylococcus aureus
# Method: as §1, §2
# MRSA N315 IR94 HR-1 = assay: MIC, agar plate dilution method; type: cell-based, methicillin-resistant Staphylococcus aureus; details: Staphylococcus aureus, 20 h
# Method: as §1, §2
# A. calcoaceticus IFO2552 = assay: MIC, agar plate dilution method; type: cell-based; details: Acinetobacter calcoaceticus
# Method: as §1, §2
# C. freundii ATCC8090 = assay: MIC, agar plate dilution method; type: cell-based; details: Citrobacter freundii
# Method: as §1, §2
# E. aerogenes NCTC10006 = assay: MIC, agar plate dilution method; type: cell-based; details: Klebsiella aerogenes
# Method: as §1, §2
# E. cloacae IFO13535 = assay: MIC, agar plate dilution method; type: cell-based; details: Enterobacter cloacae
# Method: as §1, §2
# E. coli NIHJ JC-2 = assay: MIC, agar plate dilution method; type: cell-based; details: Escherichia coli
# Method: as §1, §2
# [1] = test system: E. facecalis NTCT12201(VanA); assay: MIC, agar plate dilution method; type: cell-based
# Method: as §1, §2
# E. faecalis ATCC21212 = assay: MIC, agar plate dilution method; type: cell-based; details: Enterococcus faecalis
# Method: as §1, §2
# [2] = test system: E. faecium NTCT12203(VanA); assay: MIC, agar plate dilution method; type: cell-based; details: Enterococcus faecium
# Method: as §1, §2
# K. pneumoniae NCTN9632 = assay: MIC, agar plate dilution method; type: cell-based; details: Klebsiella pneumoniae
# Method: as §1, §2
# M. luteus ATCC9341 = assay: MIC, agar plate dilution method; type: cell-based; details: Micrococcus luteus
# Method: as §1, §2
# M. morganii IID Kono = assay: MIC, agar plate dilution method; type: cell-based; details: Morganella morganii
# Method: as §1, §2
# P. aeruginosa 46001 = assay: MIC, agar plate dilution method; type: cell-based
# Method: as §1, §2
# P. aeruginosa E-2 = assay: MIC, agar plate dilution method; type: cell-based; details: Pseudomonas aeruginosa
# Method: as §1, §2
# P. mirabilis IFO3849 = assay: MIC, agar plate dilution method; type: cell-based; details: Proteus mirabilis
# Method: as §1, §2
# P. vulgaris OX-19 = assay: MIC, agar plate dilution method; type: cell-based; details: Proteus vulgaris
# Method: as §1, §2
# S. aureus 8325(pEP2104) = assay: MIC, agar plate dilution method; type: cell-based; details: Staphylococcus aureus, 20 h
# Method: as §1, §2
# S. aureus 8325(pMS97) = assay: MIC, agar plate dilution method; type: cell-based; details: Staphylococcus aureus, 20 h
# Method: as §1, §2
# S. aureus FDA209P = assay: MIC, agar plate dilution method; type: cell-based; details: Staphylococcus aureus
# Method: as §1, §2
# S. aureus ISP217 = assay: MIC, agar plate dilution method; type: cell-based; details: Staphylococcus aureus
# Method: as §1, §2
# S. aureus ISP447 = assay: MIC, agar plate dilution method; type: cell-based; details: Staphylococcus aureus
# Method: as §1, §2
# S. aureus Smith = assay: MIC, agar plate dilution method; type: cell-based; details: Staphylococcus aureus
# Method: as §1, §2
# S. epidermidis IFO12648 = assay: MIC, agar plate dilution method; type: cell-based; details: Staphylococcus epidermidis
# Method: as §1, §2
# S. marcescens IFO12648 = assay: MIC, agar plate dilution method; type: cell-based; details: Serratia marcescens
# Method: as §1, §2
# [3] = test system: clinical isolate of MRSA (K24 strain); assay: MRSA infectious model using silkworms; type: in vivo, silkworm; details: 72 hours after the inoculation
# Method: As an alternative method for in vivo MRSA infection model using animals, the infection system using silkworms has been reported (Kaito et al, Microbial Pathogenesis, 32: 183-190, 2002). Effect of K04-0144A substance was measured according to this method.
# Test organism used was the clinical isolate of MRSA (K24 strain). The MRSA was cultured statically using LB-10 medium (DIFCO) at 37° C. for 18 hours, and a 50 μl of the cultured strain was inoculated into the hemolymph of silkworm, 5 instar, 2nd day, (about 2 g, Ehime sansyu eggs Co., Japan). K04-0144A substance was prepared to a solution of 1 mg/ml, and 50 μl of the solution were administered by using syringe to the dorsal vessel of 5 silkworms infected with MRSA (25 mg/kg). Effect of the K04-0144A substance was evaluated by comparing the survival rate between a group with administering the sample and a group without administering the sample during the raising period of 72 hours after the inoculation. […] Further, all silkworms administered with 50 μl of MRSA bacterial suspension died within 72 hours after the inoculation.
# silkworms = assay: Toxicity against silkworms (substance only, no infection); type: in vivo, silkworm; details: 25 mg/kg, uninfected silkworms, 72 hours
# Solubility in solvent = type: physicochemical; details: listed as K04-0144A substance
# MRSA N315 IR94 = assay: MIC, agar plate dilution method; type: cell-based, methicillin-resistant Staphylococcus aureus; details: Staphylococcus aureus, 20 h
# Method: as §1, §2
# [4] = test system: MRSA (Clinical isolate, the Kitasato Hospital, Japan); assay: Enhancing action of K04-0144D substance on antibiotic activities, broth microdilution method; type: cell-based, methicillin-resistant Staphylococcus aureus
smiles,measurement,setting,value
C=C(C/C=C(\C)CCC=C(C)C)CCC(C)(C)/C=C/CC/C(C)=C\COC(COP(=O)(O)OC1OC(C(N)=O)C(C)(O)C(OC(N)=O)C1OC1OC(COC2OC(CO)C(O)C(O)C2O)C(OC2OC(C)C(OC3OC(C(=O)O)C(O)C(O)C3O)C(O)C2NC(C)=O)C(O)C1NC(C)=O)C(=O)O (stereo not drawn) [K04-0144A],MIC,"MRSA 70; MRSA 70, 37° C., 20 hours, read-out: MIC",0.06 µg/mL
same,MIC,"MRSA 92-1191; MRSA 92-1191, 37° C., 20 hours, read-out: MIC",0.25 µg/mL
same,MIC,MRSA N315 IR94 HR-1,0.125 µg/mL
same,MIC,"A. calcoaceticus IFO2552; A. calcoaceticus IFO2552, 37° C., 20 hours, read-out: MIC",16 µg/mL
same,MIC,"C. freundii ATCC8090; C. freundii ATCC8090, 37° C., 20 hours, read-out: MIC",> 16 µg/mL
same,MIC,"E. aerogenes NCTC10006; E. aerogenes NCTC10006, 37° C., 20 hours, read-out: MIC",> 16 µg/mL
same,MIC,"E. cloacae IFO13535; E. cloacae IFO13535, 37° C., 20 hours, read-out: MIC",> 16 µg/mL
same,MIC,"E. coli NIHJ JC-2; NIHJJC2, E. coli NIHJ JC-2, 37° C., 20 hours, read-out: MIC",> 16 µg/mL
same,MIC,"[1]; E. facecalis NTCT12201(VanA), 37° C., 20 hours, read-out: MIC",1 µg/mL
same,MIC,"E. faecalis ATCC21212; E. faecalis ATCC21212, 37° C., 20 hours, read-out: MIC",1 µg/mL
same,MIC,"[2]; E. faecium NTCT12203(VanA), 37° C., 20 hours, read-out: MIC",> 16 µg/mL
same,MIC,"K. pneumoniae NCTN9632; K. pneumoniae NCTN9632, 37° C., 20 hours, read-out: MIC",> 16 µg/mL
same,MIC,"M. luteus ATCC9341; M. luteus ATCC9341, 37° C., 20 hours, read-out: MIC",> 16 µg/mL
same,MIC,"M. morganii IID Kono; M. morganii IID Kono, 37° C., 20 hours, read-out: MIC",> 16 µg/mL
same,MIC,"P. aeruginosa 46001; Pseudomonas aeruginosa, P. aeruginosa 46001, 37° C., 20 hours, read-out: MIC",> 16 µg/mL
same,MIC,"P. aeruginosa E-2; E2, P. aeruginosa E-2, 37° C., 20 hours, read-out: MIC",> 16 µg/mL
same,MIC,"P. mirabilis IFO3849; P. mirabilis IFO3849, 37° C., 20 hours, read-out: MIC",> 16 µg/mL
same,MIC,"P. vulgaris OX-19; OX19, P. vulgaris OX-19, 37° C., 20 hours, read-out: MIC",> 16 µg/mL
same,MIC,S. aureus 8325(pEP2104),0.06 µg/mL
same,MIC,S. aureus 8325(pMS97),0.5 µg/mL
same,MIC,"S. aureus FDA209P; S. aureus FDA209P, 37° C., 20 hours, read-out: MIC",1 µg/mL
same,MIC,"S. aureus ISP217; S. aureus ISP217, 37° C., 20 hours, read-out: MIC",0.25 µg/mL
same,MIC,"S. aureus ISP447; S. aureus ISP447, 37° C., 20 hours, read-out: MIC",0.25 µg/mL
same,MIC,"S. aureus Smith; S. aureus Smith, 37° C., 20 hours, read-out: MIC",1 µg/mL
same,MIC,"S. epidermidis IFO12648; S. epidermidis IFO12648, 37° C., 20 hours, read-out: MIC",4 µg/mL
same,MIC,"S. marcescens IFO12648; S. marcescens IFO12648, 37° C., 20 hours, read-out: MIC",> 16 µg/mL
same,survival of silkworms infected with MRSA,"[3]; 25 mg/kg into dorsal vessel, untreated infected silkworms all died within 72 hours",all survived after 72 hours of the inoculation
same,"toxicity against silkworms (survival, substance only)",silkworms,no toxicity against silkworms
same,Solubility in solvent,Solubility in solvent,"Soluble in methanol and water DMSO; also recorded: Insoluble in acetone, chloroform and hexane"
"CN[C@H](CC(C)C)C(=O)N[C@H]1C(=O)N[C@@H](CC(N)=O)C(=O)N[C@H]2C(=O)N[C@H]3C(=O)N[C@H](C(=O)N[C@H](C(=O)O)c4cc(O)cc(O)c4-c4cc3ccc4O)[C@H](O)c3ccc(c(Cl)c3)Oc3cc2cc(c3O[C@@H]2O[C@H](CO)[C@@H](O)[C@H](O)[C@H]2O[C@H]2C[C@](C)(N)[C@H](O)[C@H](C)O2)Oc2ccc(cc2Cl)[C@H]1O [vancomycin, reference compound]",MIC,"MRSA 70; MRSA, 20 h",0.5 µg/mL
same,MIC,"MRSA 92-1191; MRSA, 20 h",1 µg/mL
same,MIC,MRSA N315 IR94 HR-1,0.5 µg/mL
same,MIC,MRSA N315 IR94,0.5 µg/mL
same,MIC,"A. calcoaceticus IFO2552; IFO2552, 20 h",> 32 µg/mL
same,MIC,"C. freundii ATCC8090; ATCC8090, 20 h",> 32 µg/mL
same,MIC,"E. aerogenes NCTC10006; NCTC10006, 20 h",> 32 µg/mL
same,MIC,"E. cloacae IFO13535; IFO13535, 20 h",> 32 µg/mL
same,MIC,"E. coli NIHJ JC-2; NIHJJC2, 20 h",> 32 µg/mL
same,MIC,[1]; 20 h,> 32 µg/mL
same,MIC,"E. faecalis ATCC21212; ATCC21212, 20 h",4 µg/mL
same,MIC,[2]; 20 h,> 32 µg/mL
same,MIC,"K. pneumoniae NCTN9632; NCTN9632, 20 h",> 32 µg/mL
same,MIC,"M. luteus ATCC9341; ATCC9341, 20 h",1 µg/mL
same,MIC,M. morganii IID Kono; 20 h,> 32 µg/mL
same,MIC,"P. aeruginosa 46001; Pseudomonas aeruginosa, 46001, 20 h",> 32 µg/mL
same,MIC,"P. aeruginosa E-2; E2, 20 h",> 32 µg/mL
same,MIC,"P. mirabilis IFO3849; IFO3849, 20 h",> 32 µg/mL
same,MIC,"P. vulgaris OX-19; OX19, 20 h",> 32 µg/mL
same,MIC,S. aureus 8325(pEP2104),2 µg/mL
same,MIC,S. aureus 8325(pMS97),1 µg/mL
same,MIC,"S. aureus FDA209P; FDA209P, 20 h",1 µg/mL
same,MIC,"S. aureus ISP217; ISP217, 20 h",1 µg/mL
same,MIC,"S. aureus ISP447; ISP447, 20 h",1 µg/mL
same,MIC,S. aureus Smith; 20 h,1 µg/mL
same,MIC,"S. epidermidis IFO12648; IFO12648, 20 h",1 µg/mL
same,MIC,"S. marcescens IFO12648; IFO12648, 20 h",> 32 µg/mL
same,survival of silkworms infected with MRSA,[3]; 25 mg/kg,survived after 72 hours of the inoculation
same,enhancing action of K04-0144D substance on the antibiotic's activity,[4]; K04-0144D substance 16 μg/ml,no enhancing action
same,Ratio (−/+K04-0144D),[4]; MIC alone / MIC with K04-0144D substance 16 μg/ml,1
same,MIC,"[4]; Staphylococcus aureus, MRSA, read-out: Minimum Inhibitory Concentration (−)",1 µg/mL

# From patent US7973147B2, “K04-0144 substance and a process for production thereof” (The Kitasato Institute, priority 2006, dated 2011)
